Test results as given in BigSolDB 2.1.

details: in ethanol, 298.15 K

SMILES	solubility (mole fraction)
N#Cc1ccc(C(=O)O)cc1	0.0214
CC(=O)Oc1ccc(C(=O)O)cc1	0.0249
Nc1cc(N)cc(C(=O)O)c1	0.00334
COc1cc(OC)cc(C(=O)O)c1	0.00493
O=C(O)c1ccc(Cl)cc1Cl	0.0581

same assay, conditions: in ethanol, 303.15 K

SMILES	solubility (mole fraction)
N#Cc1ccc(C(=O)O)cc1	0.0266
CC(=O)Oc1ccc(C(=O)O)cc1	0.0302
Nc1cc(N)cc(C(=O)O)c1	0.00342
COc1cc(OC)cc(C(=O)O)c1	0.00607
O=C(O)c1ccc(Cl)cc1Cl	0.0693

same assay, conditions: in ethanol, 308.15 K

SMILES	solubility (mole fraction)
N#Cc1ccc(C(=O)O)cc1	0.0331
CC(=O)Oc1ccc(C(=O)O)cc1	0.0358
Nc1cc(N)cc(C(=O)O)c1	0.004
COc1cc(OC)cc(C(=O)O)c1	0.00746
O=C(O)c1ccc(Cl)cc1Cl	0.0817

same assay, conditions: in ethanol, 313.15 K

SMILES	solubility (mole fraction)
N#Cc1ccc(C(=O)O)cc1	0.0353
CC(=O)Oc1ccc(C(=O)O)cc1	0.0432
Nc1cc(N)cc(C(=O)O)c1	0.00441
COc1cc(OC)cc(C(=O)O)c1	0.00934
O=C(O)c1ccc(Cl)cc1Cl	0.0953

same assay, conditions: in ethanol, 318.15 K

SMILES	solubility (mole fraction)
N#Cc1ccc(C(=O)O)cc1	0.044
CC(=O)Oc1ccc(C(=O)O)cc1	0.0522
Nc1cc(N)cc(C(=O)O)c1	0.00519
COc1cc(OC)cc(C(=O)O)c1	0.0116
O=C(O)c1ccc(Cl)cc1Cl	0.118
